Five compounds from patent US20150031760A1, “PHARMACEUTICAL COMPOSITION FOR PREVENTING OR TREATING NERVOUS SYSTEM DISORDERS COMPRISING SULFURETIN OR PHARMACEUTICALLY ACCEPTABLE SALT THEREOF” (Research and Business Foundation SUNGKYUNKWAN UNIVERSITY, priority 2010, published 2015) can be followed below.

The nature of series [1]: MTT (cell viability) test, induced cell death in SH-SY5Y cells. Particulars: human. The method, then: (§1) The incubator was maintained at a temperature of 37° C., and a mixed gas of 95% air and 5% CO2 was continuously supplied thereto to provide suitable conditions for cell culture. The cells were cultured in a 6-well plate or a 96-well plate at each of densities of 1×10^6 and 2×10^4 cells/well 24 hours before the experiment. […] Sulfuretin was used in ethanol and used at a final concentration of 0.1% or less.
To measure cell viability, an MTT reduction assay was used. An MTT solution was added to each well of the 96-well plate (in which the cells have been cultured) to a final concentration of 0.5 mg/ml. The plate was incubated in an incubator for 2 hours, and the medium and the MIT solution were removed, after which DMSO was added thereto and stirred. When DMSO was completely dissolved, the UV absorbance at 540 nm was measured using a microplate reader (Molecular device, USA).
The measured absorbance was substituted into the following equation to calculate cell viability:
Cell viability (%)=[(O.D. of control−O.D. of test group)/O.D. of control]×100

Series [2] relates to mice. Briefly: Scopolamine-induced learning and memory deficits, step-through passive avoidance test. Type of series: in vivo. As to conditions: scopolamine 0.5 mg/kg, i.p. (p<0.05). The method, then: (§2) Male ICR mice (4-weeks-old, 18-20 g) were purchased from Koatech Co., Ltd. (Pyongtaek, Korea). Mice were housed 10 per cage, allowed access to water and food ad libitum, and maintained in constant temperature (23±1° C.) and humidity (55±5%) conditions under a 12 hour light/dark cycle (lights on 07:00 to 19:00 h). All experiments were conducted in accord with the NIH Guide for the Care and Use of Laboratory Animals and with the approval of the Institutional Animal Care and Use Committee of Sungkyunkwan University.
Assessment of the training or test trials of the passive avoidance test was carried out in identical illuminated and non-illuminated compartments (12×10×12 cm) containing 2-mm stainless steel rods spaced 0.5 cm apart. A 50 W lamp positioned 1 meter above both chambers illuminated the apparatuses. Briefly, the mice underwent two separate trials, a training trial and a test trial 24 hours later. For the training trial, mice were initially placed in the clear chamber. When they entered the dark chamber, the door closed and a 3-sec electrical foot shock (0.5 mA) was delivered through the stainless steel rods. One hour before each training trial, mice were given sulfretin (0.25, 0.5, or 1 mg/kg, p.o.). After 30 minutes, memory impairment was induced by administering scopolamine (0.5 mg/kg, i.p.). Twenty-four hours after the training trial, mice were placed in the illuminated chamber for the test trial. The time for the mouse to enter the dark compartment after the door opening was defined as latency for both training and test trials. Latencies were recorded for up to 300 s. To avoid a ceiling effect in unimpaired animals, sulfuretin alone was administered 1 hour before the training trial without scopolamine treatment. The intensity of electrical foot shock was set at 0.25 mA for 3 seconds. This lower intensity shock allowed for a behavioral window through which to detect any enhancing effect of sulfuretin.

The subject of series [3] is mice. Briefly: Scopolamine-induced cognitive impairment, spontaneous alternation behavior Y-maze test. The series is classed as in vivo. Particulars: scopolamine 0.5 mg/kg, i.p., compared with the control group (p<0.05). The method, then:
as §2
The spontaneous alternation behavior was measured by Y-maze which consists of a horizontal maze (30 cm long and 5 cm wide, with walls 12 cm high) with three arms (labeled A, B, and C). The maze floor and walls are constructed of dark grey, polyvinyl plastic. Mice were initially placed within one arm, and the number of alternations (i.e., consecutive entry sequences of ABC, CAB, or BCA but not BAB) and the number of arm entries were manually recorded for each mouse over an 8 minutes period. One hour before each test, the mice were given sulfuretin (0.25, 0.5, or 1 mg/kg, p.o.). After 30 minutes, memory impairment was induced by administering scopolamine (0.5 mg/kg, i.p.). […] The percentage alternation was calculated according to the following equation: Percentage alternation=[(Number of alternations)/(Total arm entries−2)]×100. […]

Series [4] concerns SH-SY5Y cells. The series can be described thus: Inhibition of mitochondrial membrane potential (MMP) damage (rhodamine-123). Type of series: cell-based, human. As to conditions: hydrogen peroxide alone, 30 minutes; normal control 99% or less. The method, then:
as §1
In order to measure the inhibition of MMP damage, cells were labeled with rhodamine-123 fluorescence, and quantitative analysis was performed using a fluorescence meter. Specifically, the 6-well plate in which the cells have been cultured was pretreated with sulfuretin for 30 minutes and then reacted with hydrogen peroxide for 30 minutes to induce MMP damage. Then, 10 μl of 10 μM rhodamine-123 was added to each well of the plate and allowed to react for 30 minutes. Herein, rhodamine-123 in the incubator was covered with a silver foil such that it would not be exposed to light. The cells that reacted with the rhodamine-123 fluorescent substance were detached with cold PBS and centrifuged at 400 g for 3 minutes. The centrifugation process was repeated twice to wash the fluorescent substance. The washed cells were stirred briefly with 0.5 ml of PBS, and 100 μl was dispensed into each well of a fresh 96-well plate. The fluorescence of the cells was measured at an excitation wavelength of 480 nm and an emission wavelength of 530 nm using a fluorescence meter (Perkinelmer, USA).
The measured fluorescence was substituted into the following equation to calculate ΔΨm:
ΔΨm(%)=[(O.D. of control−O.D. of test group)/O.D. of control]×100

The test system of series [5] is SH-SY5Y cells. The series can be described thus: Inhibition of intracellular [Ca2+] influx (Fura-2-AM fluorescence). Type of series: cell-based, human. As to conditions: hydrogen peroxide alone, 30 minutes; normal control 281 nM or less. The method, then: as §1
In order to measure inhibitory effects on intracellular [Ca^2+] influx caused by oxidative stress, cells were labeled with Fura-2-AM fluorescence, and quantitative analysis was carried out using a fluorescence meter. Specifically, 10 μl of 5 μM Fura-2-AM was added to each well of the 6-well plate (in which the cells have been cultured) and then allowed to react for 30 minutes. Herein, Fura-2-AM in the incubator was covered with a silver foil such that it would not be exposed to light. After completion of the incubation, the plate was pretreated with sulfuretin for 30 minutes, and then reacted with hydrogen peroxide for 30 minutes to induce the intracellular influx of [Ca^2+]. Then, the cells that reacted with the Fura-2-AM fluorescent substance were washed twice with cold HEPES and detached with HEPES. Then, the cells were centrifuged at 400 g for 3 minutes. The supernatant was removed carefully, stirred weakly with 0.5 ml of HEPES buffer, and then 150 μl was dispensed into each well of a fresh 96-well plate. The fluorescence of the sample dispensed into the fresh 96-well plate was measured at an excitation wavelength of […] and an emission wavelength of 520 nm using a fluorescence meter (Perkinelmer, USA).
The measured value was substituted into the following equation to calculate intracellular [Ca^2+] nM: […]

In series [6] the test system is SH-SY5Y cells. Briefly: Inhibition of ROS production (DCFH-DA fluorescence). The series is classed as cell-based, human. As to conditions: hydrogen peroxide alone, 30 minutes; control 102% or less. The method, then:
as §1
In order to measure ROS elimination activity, cells were labeled with DCFH-DA fluorescence, and quantitative analysis was performed using a fluorescence meter.
Specifically, the 6-well plate in which the cells have been cultured was pretreated with sulfuretin for 2 hours, and then reacted with hydrogen peroxide for 30 minutes to induce ROS. Then, 10 μl of 10 mM DCFH-DA was added to the plate and allowed to react with the cells for 30 minutes. Herein, DCFH-DA in the incubator was covered with a foil such that it would not be exposed to light. The cells that reacted with the DCFH-DA fluorescent substance were detached using cold PBS and centrifuged at 400 g for 3 minutes. The centrifugation process was repeated twice to wash the fluorescent substance. The washed cells were briefly stirred with 1 ml of PBS, and 100 μl was dispensed into each of a fresh 96-well plate. Then, fluorescence was measured at an excitation wavelength of 488 nm and an emission wavelength of 515 nm using a fluorescence meter (Perkinelmer, USA).
The measured value was substituted into the following equation to calculate ROS production:
ROS production (%)=[(O.D. of control−O.D. of test group)/O.D. of control]×100

The next series has as its system caspase-3. Briefly: Western blot, caspase-3 expression. The series is classed as cell-based, human. Particulars: SH-SY5Y cells; hydrogen peroxide alone, 24 hours; normal control 100%. The method, then:
as §1
(§3) In order to identify the effect of sulfuretin on the expression of proteins related to dementia, Alzheimer's disease, Parkinson's disease and strokes, a Western blot test was carried out.
(§4) After 24 hours, the supernatant of each well was collected and centrifuged at 400 g for 3 minutes, and the cells were washed with cold PBS and lysed with 100 μl of T-PER lysis buffer (Thermo, USA) for 30 minutes. The lysates were centrifuged at 10000 g at 4° C. for 15 minutes, and the supernatants were stored at […] until use as test samples. Proteins were quantitatively analyzed using a BCA assay kit (Thermo, USA) and separated within 8.5-12% SDS gel and then transferred to PVDF membranes. To examine the expression of the proteins, the development of fluorescence was analyzed by enhanced chemiluminescence (ECL). Specifically, the membrane was blocked with 5% skimmed non-fat milk for 1 hour and labeled with the primary antibodies, PARP, caspase-3, phospho-p38, phospho-JNK and β-actin at 4° C. overnight. Then, the membrane was washed three times with Tris-tween buffered saline (TTBS), and then labeled with horseradish peroxidase (HRP)-conjugated anti-rabbit and anti-mouse secondary antibodies at room temperature for 1 hour. Then, the membrane was washed five times with TTBS for 10 minutes. The washed film was developed by ECL using x-ray films, and concentrations were quantitatively analyzed using quantitative analysis program (Fujifilm, Japan).

For another series, the system named is phospho-JNK. Briefly: Western blot, phospho-JNK expression. The series is classed as cell-based, human. Particulars: SH-SY5Y cells; hydrogen peroxide alone, 24 hours; normal control 100%. The method, then: as §1, §3, §4
In general terms: In western blotting, separated proteins are transferred to a membrane and probed.

The subject of series [7] is SH-SY5Y cells. The series can be described thus: LDH secretion (cytotoxicity) test. Type of series: cell-based, human. The method, then: as §1
To measure LDH secretion (cytotoxicity), an LDH cytotoxicity assay kit was used. 50 μl of the medium was taken from each well of the 96-well plate (in which the cells have been cultured) and dispensed into each well of a fresh 96-well plate, and 50 μl of a reaction reagent was added to each well, after which the plate was shielded from light. The plate was incubated in an incubator for 30 minutes, and the UV absorbance at 490 nm was measured using a microplate reader (Molecular device, USA).
The measured absorbance was substituted into the following equation to calculate LDH secretion:
LDH secretion (%)=(LDH secretion O.D. in medium/total LDH secretion O.D.)×100

A further series concerns PARP. Briefly: Western blot, PARP expression. The series is classed as cell-based, human. Particulars: SH-SY5Y cells; hydrogen peroxide alone, 24 hours; normal control 100%. The method, then:
as §1, §3, §4

The test system of another series is phospho-p38. The series can be described thus: Western blot, phospho-p38 expression. Type of series: cell-based, human. Particulars: SH-SY5Y cells; hydrogen peroxide alone, 24 hours; normal control 100%. The method, then: as §1, §3, §4
The subject of the next series is Tau. Briefly: Western blot, amyloid beta25-35-induced hyperphosphorylation of Tau. Type of series: cell-based, human. As to conditions: SH-SY5Y cells; 20 μM amyloid beta25-35 alone, compared with control samples (p<0.05 and p<0.01).
The test system of series [8] is SH-SY5Y cells. Briefly: LDH assay, amyloid beta25-35-induced cytotoxicity. The series is classed as cell-based, human. Particulars: 20 μM amyloid beta25-35 alone for 24 h, versus control cells (p<0.001).
A short description of series [9]: MTT (cell viability) test, corticosterone-induced cell death in PC12 cells. The series is classed as cell-based. As to conditions: rat. The method, then:
For the experiment shown in FIG. 3, PC12 cells were cultured in DMEM medium (Hyclone, Thermo, USA) containing 10% FBS, 5% horse serum and antibiotics (Gibco-BRL, USA). […] The concentration of corticosterone was determined to be 400 μM after evaluation of cell viability.

No end group written: not given here. A value given as a limit tells only on which side of the number the result lay.

`NCCc1cc(O)c(O)cc1O` [6-hydroxydopamine, reference compound] yielded a viability at 200 µM in series [1] of at least 69%.
On to `CN1[C@@H]2C[C@@H](OC(=O)[C@H](CO)c3ccccc3)C[C@H]1[C@@H]1O[C@@H]12` [scopolamine, reference compound], for which, in the series with mice [2], the “step-through latency time (test trial)” value is “decreased”. Moreover, the spontaneous alternation behavior result with mice [3] is given as “significantly decreased”.
As to `OO` [hydrogen peroxide, reference compound], in the series with SH-SY5Y cells [4], the “MMP (ΔΨm)” value was at most 55%. Further, in the series on SH-SY5Y cells [5], the “intracellular [Ca2+] influx” value was at least 600 nM. For the same compound, in series [1] (cell viability), the viability at 400 µM was at least 55%. In addition, in the series with SH-SY5Y cells [6], the ROS production is at least 148%. The compound also registered a caspase-3 expression in the series with caspase-3 of at most 40%. Also, the phospho-JNK expression in the series with phospho-JNK was at least 173%. Further, the LDH secretion in the series on SH-SY5Y cells [7] (hydrogen peroxide alone, normal control 11% or less) was at least 80%. For the same compound, the PARP expression with PARP is reported as at most 38%. The same compound showed a phospho-p38 expression with phospho-p38 of at least 133%.
As for “GSNKGAIIGLM [beta-amyloid, amyloid-beta 25-35 fragment, reference compound]”, the “phosphorylation of Tau proteins” value in the series on Tau is reported as “rapidly increased”. In the series on SH-SY5Y cells [7] (beta-amyloid alone, normal control 12% or less), this compound yielded an LDH secretion of at least 15%. Besides, the “LDH activity (LDH release)” value in the series with SH-SY5Y cells [8] is “increased significantly”.
`C[C@]12C[C@H](O)[C@H]3[C@@H](CCC4=CC(=O)CC[C@@]43C)[C@@H]1CC[C@@H]2C(=O)CO` [corticosterone, Corticosterone, reference compound]: the viability at 400 µM in series [9] is at least 55%.

Usually viability stands for the share of living cells, or the viability signal relative to a control. A lower viability goes with a greater loss of cells.
